This note sets out measurements from ChEMBL document CHEMBL5252560 (Bioorg Med Chem Lett, 2023).

A word on the IC50: it is the concentration that inhibits the measured activity by half.

Holding throughout (type): functional, cell-based
One assay relates to U-937. Put plainly: Antiproliferative activity against human U-937 cells assessed as cell growth inhibition.
For another assay, the system named is HepG2. Put plainly: Antiproliferative activity against human HepG2 cells assessed as cell growth inhibition.
Another assay concerns Y79. Put plainly: Antiproliferative activity against human Y79 cells assessed as cell growth inhibition.
Another assay deals with A549. Put plainly: Antiproliferative activity against human A549 cells assessed as cell growth inhibition.

For the compound `COC(=O)c1ccc2c(C3CC(c4cc(OC)c(OC)c(OC)c4)=NN3)c[nH]c2c1` (centres undefined), the IC50 with U-937 is 7.36 µM; with HepG2, 6.35 µM; with Y79, more than 10 µM; in the assay on A549 it was more than 10 µM.
